Assay results taken from patent US20180104059A1, “Delivery of Therapy to Living Tissue” (President and Fellows of Harvard College, priority 2015, published 2018).

Columns and labels:
[1] = Delivery of fluorescently tagged protein via thericardium port versus intraperitoneal, fluorescence at target site; format: in vivo, rat; details: after three hours
Source text: A bovine serum albumin solution tagged with a fluorescent molecule (Vivotag 800) was delivered via the port 18. […] The bioluminescence from the dose is shown for intraperitoneal delivery (at left) and for direct delivery via the thericardium 10 is shown in FIG. 28.

[2] = in vivo; cited from earlier work
[3] = tested on: canine model of myocardial infarction; details: ONO1301 alone or in combination with a VRD; cited from earlier work

## bovine serum albumin: bovine serum albumin solution tagged with a fluorescent molecule (Vivotag 800), model protein
[1]; delivered via the port
  protein at the target site (fluorescence): sustained concentration
[1]; same amount injected intraperitoneally
  protein at the target site (fluorescence): undetectable quantity

## CC(C)NCC(O)COc1ccc(CC(N)=O)cc1 (centres unmarked) [atenolol]
[2]
  efficacy with intrapericardial delivery compared to IV administration: improved the efficacy

## O=C(O)COc1cccc2c1CCC=C2CCO/N=C(\c1ccccc1)c1cccnc1 [ONO1301]
[3]
  HGF, VEGF and SDF-1 in the myocardium: upregulation
  myocardial vascularization: increase in myocardial vascularization
